Measurements published in ChEMBL document CHEMBL1132520, “Antimalarial activity of 3-hydroxyalkyl-2-methylene-propionic acid derivatives” (1999).
Calls of active or inactive are those of the source. The rule behind the calls is not given here.

Tests used:
Plasmodium falciparum [1] = assay: In vitro inhibition of Plasmodium falciparum at 2.5 uM/well dose at 72 hrs in total parasite growth assay; type: functional
Plasmodium falciparum [2] = assay: In vitro inhibition of Plasmodium falciparum at 25 uM/well dose at 72 hrs in total parasite growth assay; type: functional
Plasmodium falciparum [3] = assay: In vitro antimalarial activity for Plasmodium falciparum at 1 uM/well dose at 24 hrs in Schizont maturation assay; type: functional
Plasmodium falciparum [4] = assay: In vitro antimalarial activity for Plasmodium falciparum at 100 uM/well dose at 24 hrs in Schizont maturation assay; type: functional
Plasmodium falciparum [5] = assay: In vitro antimalarial activity for Plasmodium falciparum at 500 uM/well dose at 24 hrs in Schizont maturation assay; type: functional
Plasmodium falciparum [6] = assay: In vitro antimalarial activity for Plasmodium falciparum at 10 uM/well dose at 24 hrs in Schizont maturation assay; type: functional
Plasmodium falciparum [7] = assay: In vitro antimalarial activity for Plasmodium falciparum at 50 uM/well dose at 24 hrs in Schizont maturation assay; type: functional
Plasmodium falciparum [8] = assay: In vitro inhibition of Plasmodium falciparum at 5 uM/well dose at 72 hrs in total parasite growth assay; type: functional
Plasmodium falciparum [9] = assay: In vitro antimalarial activity for Plasmodium falciparum at 5 uM/well dose at 24 hrs in Schizont maturation assay; type: functional
Plasmodium falciparum [10] = assay: In vitro inhibition of Plasmodium falciparum at 10 uM/well dose at 72 hrs in total parasite growth assay; type: functional
Plasmodium falciparum [11] = assay: In vitro inhibition of Plasmodium falciparum at 1.0 uM/well dose at 72 hrs in total parasite growth assay; type: functional
Plasmodium falciparum [12] = assay: In vitro inhibition of Plasmodium falciparum at 100 uM/well dose at 72 hrs in total parasite growth assay; type: functional
Mus musculus [13] = assay: In vivo antimalarial activity against Plasmodium berghei in mice (Mus musculus); Inactive; type: functional, organism-based
Mus musculus [14] = assay: Antimalarial activity against Plasmodium berghei evaluated in terms of mean survival time for mice (Mus musculus) at a dose of 160 mg/kg; type: functional
Mus musculus [15] = assay: Anti-malarial activity against Plasmodium berghei evaluated in terms of mean survival time for mice (Mus musculus) at a dose of 20 mg/kg; type: functional
Mus musculus [16] = assay: Antimalarial activity against Plasmodium berghei evaluated in terms of mean survival time for mice (Mus musculus) at a dose of 40 mg/kg; type: functional
Mus musculus [17] = assay: Antimalarial activity against Plasmodium berghei evaluated in terms of mean survival time for mice (Mus musculus) at a dose of 80 mg/kg; type: functional
Plasmodium falciparum [18] = assay: In vitro inhibition of Plasmodium falciparum at 0.25 uM/well dose at 72 hrs in total parasite growth assay; type: functional
Plasmodium falciparum [19] = assay: In vitro antimalarial activity for Plasmodium falciparum at 2.5 uM/well dose at 24 hrs in Schizont maturation assay; type: functional
Plasmodium falciparum [20] = assay: In vitro inhibition of Plasmodium falciparum at 50 uM/well dose at 72 hrs in total parasite growth assay; type: functional
Plasmodium falciparum [21] = assay: In vitro inhibition of Plasmodium falciparum at 0.5 uM/well dose at 72 hrs in total parasite growth assay; type: functional
Plasmodium falciparum [22] = assay: In vitro antimalarial activity for Plasmodium falciparum at 0.10 uM/well dose at 24 hrs in Schizont maturation assay; type: functional
Plasmodium falciparum [23] = assay: In vitro antimalarial activity for Plasmodium falciparum at 0.25 uM/well dose at 24 hrs in Schizont maturation assay; type: functional
Mus musculus [24] = assay: In vivo anti-malarial activity against Plasmodium berghei in mice (Mus musculus) at a dose of 160 mg/kg; Active; type: functional, organism-based; design: dose 160 mg/kg
Plasmodium falciparum [25] = assay: In vitro inhibition of Plasmodium falciparum at 20 uM/well dose at 72 hrs in total parasite growth assay; type: functional
Plasmodium falciparum [26] = assay: In vitro antimalarial activity for Plasmodium falciparum at 0.50 uM/well dose at 24 hrs in Schizont maturation assay; type: functional
Plasmodium falciparum [27] = assay: In vitro antimalarial activity for Plasmodium falciparum at 20 uM/well dose at 24 hrs in Schizont maturation assay; type: functional
Plasmodium falciparum [28] = assay: In vitro inhibition of Plasmodium falciparum at 20 uM/well dose at 72 hrs in total parasite growth assay; Not determined; type: functional

Compound | PGI (Plasmodium falciparum [1]) | PGI (Plasmodium falciparum [2]) | inhibition at 1 µM (Plasmodium falciparum [3]) | inhibition at 100 µM (Plasmodium falciparum [4]) | inhibition at 500 µM (Plasmodium falciparum [5]) | inhibition at 10 µM (Plasmodium falciparum [6]) | inhibition at 50 µM (Plasmodium falciparum [7]) | PGI (Plasmodium falciparum [8]) | inhibition at 5 µM (Plasmodium falciparum [9]) | PGI (Plasmodium falciparum [10]) | PGI (Plasmodium falciparum [11]) | PGI (Plasmodium falciparum [12]) | Mean survival time (Mus musculus [14]) | Mean survival time (Mus musculus [15]) | Mean survival time (Mus musculus [16]) | Mean survival time (Mus musculus [17]) | PGI (Plasmodium falciparum [18]) | inhibition at 0.1 µM (Plasmodium falciparum [22]) | inhibition at 0.25 µM (Plasmodium falciparum [23]) | inhibition at 0.5 µM (Plasmodium falciparum [26]) | other results
C=C(CCC(C)=O)C(C)=O | 65.7% | 100% | 52.6% | 100% | 100% | 100% | 100% | 88.6% | 100% | 100% | 8.6% | 100% |  |  |  |  |  |  |  |  | 
C=C(C#N)C(O)/C=C(\C)CCC=C(C)C (stereo unspecified) |  |  |  |  |  |  |  |  |  |  |  |  | 11.6 days | 7.3 days | 8.6 days | 9.8 days |  |  |  |  | Activity (Mus musculus [13]): inactive
C=C(C#N)C(OCCC#N)c1ccc2c(c1)OCO2 (stereo unspecified) | 40% |  | 43% | 100% |  | 93% | 100% | 52.5% | 64% | 90% | 25% | 100% | 14.2 days | 7.8 days | 9.2 days | 11.4 days | 0% | 0% | 6% | 36% | inhibition at 2.5 µM (Plasmodium falciparum [19]): 57%; PGI (Plasmodium falciparum [20]): 100%; PGI (Plasmodium falciparum [21]): 10%; Activity (Mus musculus [24]): Active; PGI (Plasmodium falciparum [25]): 95%; inhibition at 20 µM (Plasmodium falciparum [27]): 100%
C=C(C#N)C(O)c1ccc(OC)c(OC)c1 (stereo unspecified) |  |  | 5.26% | 100% | 100% | 42% | 71% |  | 21% |  |  |  |  |  |  |  |  | 0% | 0% | 0% | 
C=C(C(=O)OC)C(O)c1cccnc1 (stereo unspecified) | 75% |  | 43% | 100% |  | 100% | 100% | 92.5% | 100% | 100% | 50% | 100% |  |  |  |  | 5% | 0% | 5% | 29% | inhibition at 2.5 µM (Plasmodium falciparum [19]): 64%; PGI (Plasmodium falciparum [20]): 100%; PGI (Plasmodium falciparum [28]): 100%; PGI (Plasmodium falciparum [21]): 25%; inhibition at 20 µM (Plasmodium falciparum [27]): 100%
C=C(C(=O)OC)C(O)c1ccco1 (stereo unspecified) | 42.8% | 100% |  |  |  |  |  | 85.7% |  | 98% | 20% | 100% |  |  |  |  | 0% |  |  |  | 
